Common to all, as to assay: HotSpot kinase profiling
What all share (format): biochemical

One assay concerns the target T1, ALK (Homo sapiens, UniProt Q9UM73).
T1 construct: purchased Reaction Biology Corp
The method, boiled down:
(§1)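 Radio-isotope P81 filtration format. Substrate + required cofactors in reaction buffer, kinase added, 2 h RT. Stop, wash with 0.1% phosphoric acid, detect. % inhibition vs DMSO; mean of duplicates where repeated.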

The target of another assay is T2, DRAK1/STK17A (Homo sapiens, UniProt Q9UEE5).
T2 construct: purchased Reaction Biology Corp
T2 sequence (Q9UEE5 1-414): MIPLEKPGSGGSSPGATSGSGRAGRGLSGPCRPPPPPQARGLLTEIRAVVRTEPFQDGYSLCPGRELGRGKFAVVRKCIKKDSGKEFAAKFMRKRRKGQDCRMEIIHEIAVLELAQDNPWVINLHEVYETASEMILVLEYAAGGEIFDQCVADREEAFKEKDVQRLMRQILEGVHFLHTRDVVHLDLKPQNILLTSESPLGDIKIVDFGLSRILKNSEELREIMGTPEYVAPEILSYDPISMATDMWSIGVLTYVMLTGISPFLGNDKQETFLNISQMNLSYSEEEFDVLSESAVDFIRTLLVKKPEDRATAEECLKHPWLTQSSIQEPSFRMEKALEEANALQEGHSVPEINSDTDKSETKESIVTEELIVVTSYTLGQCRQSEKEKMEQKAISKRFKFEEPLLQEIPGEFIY
An outline of the steps: as §1

For another assay, the target named is T3, MEKK3 (Homo sapiens, UniProt Q99759).
T3 construct: purchased Reaction Biology Corp
T3 sequence (Q99759 1-626): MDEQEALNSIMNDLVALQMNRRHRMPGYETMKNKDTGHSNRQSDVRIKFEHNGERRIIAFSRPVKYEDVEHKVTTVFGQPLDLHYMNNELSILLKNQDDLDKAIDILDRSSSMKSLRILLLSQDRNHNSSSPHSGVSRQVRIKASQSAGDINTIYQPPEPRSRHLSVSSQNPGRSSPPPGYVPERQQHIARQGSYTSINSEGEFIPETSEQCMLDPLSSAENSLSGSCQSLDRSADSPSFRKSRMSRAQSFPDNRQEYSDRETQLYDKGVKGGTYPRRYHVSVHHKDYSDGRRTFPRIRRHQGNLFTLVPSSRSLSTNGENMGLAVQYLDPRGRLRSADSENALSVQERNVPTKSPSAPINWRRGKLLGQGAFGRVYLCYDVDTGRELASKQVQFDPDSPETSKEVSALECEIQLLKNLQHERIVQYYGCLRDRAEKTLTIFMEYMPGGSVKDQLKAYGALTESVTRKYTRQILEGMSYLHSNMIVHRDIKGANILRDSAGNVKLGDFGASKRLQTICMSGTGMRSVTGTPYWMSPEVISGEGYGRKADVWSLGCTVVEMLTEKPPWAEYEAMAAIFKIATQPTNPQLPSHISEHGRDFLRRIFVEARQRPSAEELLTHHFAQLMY
An outline of the steps: as §1

A further assay deals with T4, SLK/STK2 (Homo sapiens, UniProt Q9H2G2).
T4 construct: purchased Reaction Biology Corp
T4 sequence (Q9H2G2 whole entry): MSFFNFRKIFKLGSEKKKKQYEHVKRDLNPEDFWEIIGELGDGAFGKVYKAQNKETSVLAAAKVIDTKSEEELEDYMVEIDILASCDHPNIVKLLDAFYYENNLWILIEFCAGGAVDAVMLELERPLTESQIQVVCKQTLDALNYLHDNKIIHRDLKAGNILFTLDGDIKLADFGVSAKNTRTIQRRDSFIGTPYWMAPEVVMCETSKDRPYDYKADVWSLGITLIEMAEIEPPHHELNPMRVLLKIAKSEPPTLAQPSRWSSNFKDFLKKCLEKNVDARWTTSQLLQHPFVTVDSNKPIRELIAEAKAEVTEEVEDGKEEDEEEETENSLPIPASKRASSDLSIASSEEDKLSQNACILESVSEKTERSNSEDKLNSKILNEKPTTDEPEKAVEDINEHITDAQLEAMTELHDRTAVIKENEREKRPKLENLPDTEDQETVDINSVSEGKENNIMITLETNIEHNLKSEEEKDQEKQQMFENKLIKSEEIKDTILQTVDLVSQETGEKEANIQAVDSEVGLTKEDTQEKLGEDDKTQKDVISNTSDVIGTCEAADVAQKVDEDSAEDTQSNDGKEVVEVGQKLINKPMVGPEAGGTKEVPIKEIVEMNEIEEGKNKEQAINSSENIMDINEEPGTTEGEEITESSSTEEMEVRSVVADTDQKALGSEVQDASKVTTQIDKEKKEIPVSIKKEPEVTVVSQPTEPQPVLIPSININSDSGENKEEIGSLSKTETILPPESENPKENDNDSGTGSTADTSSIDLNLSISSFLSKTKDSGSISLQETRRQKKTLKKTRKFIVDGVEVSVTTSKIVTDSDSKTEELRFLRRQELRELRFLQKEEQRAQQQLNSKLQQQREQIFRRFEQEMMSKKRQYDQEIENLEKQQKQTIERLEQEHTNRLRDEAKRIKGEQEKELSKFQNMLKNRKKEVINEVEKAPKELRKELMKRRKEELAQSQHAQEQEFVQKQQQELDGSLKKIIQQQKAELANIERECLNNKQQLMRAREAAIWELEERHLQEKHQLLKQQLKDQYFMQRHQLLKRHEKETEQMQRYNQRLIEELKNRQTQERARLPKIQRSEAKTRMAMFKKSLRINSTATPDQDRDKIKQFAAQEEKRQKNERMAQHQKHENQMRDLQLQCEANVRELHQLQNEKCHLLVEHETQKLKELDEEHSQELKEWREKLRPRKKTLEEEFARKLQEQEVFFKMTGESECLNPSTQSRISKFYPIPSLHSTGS
The method, boiled down: as §1

The target of another assay is T5, TTBK1 (Homo sapiens, UniProt Q5TCY1).
T5 construct: purchased Reaction Biology Corp
T5 sequence (Q5TCY1 whole entry): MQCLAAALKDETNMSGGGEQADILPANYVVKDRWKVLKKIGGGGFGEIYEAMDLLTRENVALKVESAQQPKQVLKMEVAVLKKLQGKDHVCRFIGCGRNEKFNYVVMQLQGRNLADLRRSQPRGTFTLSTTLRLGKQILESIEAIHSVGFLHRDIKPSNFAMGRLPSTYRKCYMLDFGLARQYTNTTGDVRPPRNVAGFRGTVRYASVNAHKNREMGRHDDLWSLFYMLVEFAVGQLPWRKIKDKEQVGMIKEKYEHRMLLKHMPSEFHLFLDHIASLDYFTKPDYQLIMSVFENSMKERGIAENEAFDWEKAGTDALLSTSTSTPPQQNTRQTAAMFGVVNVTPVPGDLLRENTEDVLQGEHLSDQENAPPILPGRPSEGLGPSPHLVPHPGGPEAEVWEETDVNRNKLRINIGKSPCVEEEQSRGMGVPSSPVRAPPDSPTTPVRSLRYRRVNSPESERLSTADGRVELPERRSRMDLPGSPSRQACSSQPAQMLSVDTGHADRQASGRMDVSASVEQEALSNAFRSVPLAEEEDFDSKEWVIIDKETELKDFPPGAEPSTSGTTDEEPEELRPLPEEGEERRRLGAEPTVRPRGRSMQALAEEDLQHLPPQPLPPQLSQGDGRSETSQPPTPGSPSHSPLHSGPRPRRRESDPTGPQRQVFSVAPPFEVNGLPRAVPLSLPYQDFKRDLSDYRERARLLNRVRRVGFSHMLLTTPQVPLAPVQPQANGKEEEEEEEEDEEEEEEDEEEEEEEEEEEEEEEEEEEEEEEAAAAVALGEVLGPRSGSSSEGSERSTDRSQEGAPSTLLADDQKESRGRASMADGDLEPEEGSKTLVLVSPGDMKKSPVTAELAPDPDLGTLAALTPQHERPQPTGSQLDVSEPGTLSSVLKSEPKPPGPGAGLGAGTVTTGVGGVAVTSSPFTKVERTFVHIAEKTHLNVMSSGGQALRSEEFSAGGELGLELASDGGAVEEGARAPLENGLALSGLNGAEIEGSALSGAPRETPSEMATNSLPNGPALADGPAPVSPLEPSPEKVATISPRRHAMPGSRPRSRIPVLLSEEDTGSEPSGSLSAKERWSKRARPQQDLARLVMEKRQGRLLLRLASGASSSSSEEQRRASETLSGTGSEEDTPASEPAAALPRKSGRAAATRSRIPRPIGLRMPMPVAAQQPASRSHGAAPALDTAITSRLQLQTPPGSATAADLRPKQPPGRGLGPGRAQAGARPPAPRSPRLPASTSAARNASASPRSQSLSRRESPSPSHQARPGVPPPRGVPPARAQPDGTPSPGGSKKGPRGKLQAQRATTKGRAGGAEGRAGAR
An outline of the steps: as §1

Where [1] appears, read: read-out: % Enzyme Activity (relative to DMSO controls) Run 1.
The mark [2] stands for this setting: read-out: % Enzyme Activity (relative to DMSO controls) Run 2.

Read-outs that look alike come from different tables or passages of the source.

T1 sequence (Q9UM73 19-1620): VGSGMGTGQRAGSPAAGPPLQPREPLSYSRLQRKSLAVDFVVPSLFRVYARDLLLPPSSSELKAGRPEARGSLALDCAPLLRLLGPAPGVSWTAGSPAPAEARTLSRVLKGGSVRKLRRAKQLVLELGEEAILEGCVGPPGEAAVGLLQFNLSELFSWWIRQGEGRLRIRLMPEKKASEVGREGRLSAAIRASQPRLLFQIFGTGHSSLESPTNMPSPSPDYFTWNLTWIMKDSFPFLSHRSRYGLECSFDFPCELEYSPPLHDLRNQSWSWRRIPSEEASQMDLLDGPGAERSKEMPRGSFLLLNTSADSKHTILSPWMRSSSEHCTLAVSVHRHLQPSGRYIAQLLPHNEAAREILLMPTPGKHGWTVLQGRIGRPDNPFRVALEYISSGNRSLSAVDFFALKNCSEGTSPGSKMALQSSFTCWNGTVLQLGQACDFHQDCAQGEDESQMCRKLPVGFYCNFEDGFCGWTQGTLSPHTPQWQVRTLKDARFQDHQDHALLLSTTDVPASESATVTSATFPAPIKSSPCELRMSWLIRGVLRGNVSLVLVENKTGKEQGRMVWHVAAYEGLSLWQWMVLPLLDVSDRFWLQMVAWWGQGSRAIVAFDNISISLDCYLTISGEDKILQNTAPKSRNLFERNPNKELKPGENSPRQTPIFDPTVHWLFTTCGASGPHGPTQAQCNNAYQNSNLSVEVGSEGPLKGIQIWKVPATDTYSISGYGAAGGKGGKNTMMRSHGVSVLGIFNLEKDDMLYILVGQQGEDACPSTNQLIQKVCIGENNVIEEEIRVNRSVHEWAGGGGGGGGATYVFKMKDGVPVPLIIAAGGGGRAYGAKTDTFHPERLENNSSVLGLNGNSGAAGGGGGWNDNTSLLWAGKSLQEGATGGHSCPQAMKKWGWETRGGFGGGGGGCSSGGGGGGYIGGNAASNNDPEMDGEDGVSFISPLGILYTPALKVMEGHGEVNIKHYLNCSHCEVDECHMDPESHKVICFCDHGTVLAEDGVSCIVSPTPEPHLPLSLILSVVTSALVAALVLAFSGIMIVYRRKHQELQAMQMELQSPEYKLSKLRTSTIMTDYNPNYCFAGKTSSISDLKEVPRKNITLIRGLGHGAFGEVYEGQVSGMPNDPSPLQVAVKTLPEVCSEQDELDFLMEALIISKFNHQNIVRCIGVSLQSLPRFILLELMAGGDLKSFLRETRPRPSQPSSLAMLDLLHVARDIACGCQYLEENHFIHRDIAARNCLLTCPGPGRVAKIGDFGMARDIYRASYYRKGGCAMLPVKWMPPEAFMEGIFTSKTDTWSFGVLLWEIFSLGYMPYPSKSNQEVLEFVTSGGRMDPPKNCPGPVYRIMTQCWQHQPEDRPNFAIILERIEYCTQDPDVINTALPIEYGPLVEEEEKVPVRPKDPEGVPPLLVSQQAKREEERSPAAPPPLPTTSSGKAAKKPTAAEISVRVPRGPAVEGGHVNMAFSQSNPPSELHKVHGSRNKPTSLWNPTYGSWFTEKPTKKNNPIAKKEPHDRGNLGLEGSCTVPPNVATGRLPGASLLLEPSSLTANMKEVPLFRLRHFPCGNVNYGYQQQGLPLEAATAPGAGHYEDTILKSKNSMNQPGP

The inhibition is the change of the read-out against control, counted positive when it falls. As for `C=CC(=O)Nc1cccc(Nc2nc(Nc3ccc(OCCOC)c(F)c3)ncc2F)c1` [Compound 2], the inhibition at 3 µM against ALK is 16.9%; at DRAK1/STK17A it was 18.2%; at MEKK3, -4.03%; against SLK/STK2, 24.9%; against TTBK1, -1.65%. Also, the remaining activity at 3 µM at ALK (setting [1]) was determined as 82.5%; at ALK (setting [2]), 83.6%; at DRAK1/STK17A (setting [1]), 82.9%; on DRAK1/STK17A (setting [2]), 80.6%; on MEKK3 (setting [1]), 102%; on MEKK3 (setting [2]), 106%. The remaining activity at 3 µM at SLK/STK2 (setting [1]) was 74.9%; at SLK/STK2 (setting [2]), 75.3%; on TTBK1 (setting [1]), 101%; at TTBK1 (setting [2]), 102%.
